Where two headings read alike, the source gives them in different places.
Tests used:
[1] = humans; cited from earlier work
[2] = tested on: cerebral ischemia/hypoxia-induced learning and memory impairment; assay: water maze spatial learning and memory after global cerebral ischemia/hypoxia (Example 3); type: in vivo, rat
Description: Global cerebral ischemia/hypoxia was induced in male Wistar rats (225-250 g) by permanently occluding the bilateral common carotid arteries, combined with about 14 minutes of low oxygen (about 5%). […] Spatial learning (2 trials/ day for 4 days) and memory (a probe test of 1 minute, 24 hours after the last trial) task was performed 9 days after the last dose. Overall, there was a significant difference between the groups (F3,255=31.856, p<0.001) and groups x trials (F21,255=1.648, p<0.05). Global cerebral ischemia impaired the spatial learning (ischemial vs. sham-operated F1,127=[…]).

[3] = tested on: cerebral ischemia-induced memory impairment; assay: water maze spatial learning and probe test after global ischemia (Example 2); type: in vivo, rat; conditions: for water maze spatial learning, ischemic with treatment vs. control rats: trained one week after last dose; for water maze spatial learning, ischemic with treatment vs. ischemic rats: treatment started 24 hours after hypoxia, bryostatin-1 20 μg/m^2 i.v. 2 doses/week 10 doses, MCDA 1.0 mg/kg i.p. daily 5 weeks
Description: Rats (male, Wistar, 200-225 g) were randomly divided into 6 groups (8 each) and housed for 1 week before experimentation. Transient or permanent restriction of cerebral blood flow and oxygen supply results in ischemic stroke. The global ischemia model used to induce vascular memory impairment was two-vessel occlusion combined with a short term systemic hypoxia. Ligation of the bilateral common carotid arteries was performed under anesthesia (pentobarbital, 60 mg/kg, i.p.). After a one-week recovery from the surgery, rats were exposed to 14-min hypoxia (5% oxygen in a glass jar). Control rats (sham operated and vehicle controls) were subjected to the same incision to isolate both common carotid arteries and to 14-min air (in the glass jar). Body temperature was kept at 37-37.5° C. using a heating light source during the surgical procedure and until the animals were fully recovered.
4-Methylcatechol-diacetic acid (MCDA, a potential NGF and BDNF booster) was administered at 1.0 mg/kg (i.p., daily for the same 5-week period) in separate groups of rats.
A visible platform test was given after the probe test.

PKCε = molecular target: T1, PKCε (Homo sapiens, UniProt Q02156); conditions: cited from earlier work
T1 sequence (Q02156 1-737): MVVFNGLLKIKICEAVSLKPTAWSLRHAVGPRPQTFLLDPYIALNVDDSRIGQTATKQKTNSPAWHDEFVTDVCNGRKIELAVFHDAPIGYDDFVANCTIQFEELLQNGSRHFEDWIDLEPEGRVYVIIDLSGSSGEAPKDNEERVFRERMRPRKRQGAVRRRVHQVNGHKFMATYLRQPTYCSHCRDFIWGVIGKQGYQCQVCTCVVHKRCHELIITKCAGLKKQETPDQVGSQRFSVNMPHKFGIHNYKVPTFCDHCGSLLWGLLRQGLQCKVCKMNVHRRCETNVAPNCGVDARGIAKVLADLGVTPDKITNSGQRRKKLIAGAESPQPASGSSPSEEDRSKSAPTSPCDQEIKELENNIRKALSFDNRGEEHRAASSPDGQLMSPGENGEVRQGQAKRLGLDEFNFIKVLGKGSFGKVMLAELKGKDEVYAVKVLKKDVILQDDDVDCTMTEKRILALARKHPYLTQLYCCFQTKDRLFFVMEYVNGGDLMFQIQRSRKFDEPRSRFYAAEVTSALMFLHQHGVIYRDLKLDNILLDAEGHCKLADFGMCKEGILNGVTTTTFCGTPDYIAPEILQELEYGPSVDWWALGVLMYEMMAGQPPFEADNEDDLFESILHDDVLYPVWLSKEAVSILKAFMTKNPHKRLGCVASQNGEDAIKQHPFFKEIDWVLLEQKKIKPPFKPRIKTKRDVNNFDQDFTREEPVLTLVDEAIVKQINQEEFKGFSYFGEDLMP

[4] = tested on: cyclin dependent kinase 2 (Cdk2); conditions: at 5 ng/ml; cited from earlier work
[5] = tested on: murine leukemias and solid tumors; conditions: cited from earlier work
PKC [6] = conditions: K562 cells; cited from earlier work
PKC [7] = conditions: [3H]phorbol dibutyrate; read-out: Ki for binding; cited from earlier work
[8] = tested on: squamous cell carcinoma and melanoma; conditions: used topically; cited from earlier work
NCI 60 cell line screen = conditions: cited from earlier work
protein kinase C = conditions: (−)-enantiomer; cited from earlier work
PKC [9] = conditions: A-ring bryologs; read-out: affinity for PKC; cited from earlier work
[10] = non-ischemic rats, same regimens

## CCCC=CC=CC(=O)OC1C(=CC(=O)OC)CC2CC(C(C)O)OC(=O)CC(O)CC3CC(OC(C)=O)C(C)(C)C(O)(CC4CC(=CC(=O)OC)CC(C=CC(C)(C)C1(O)O2)O4)O3 (stereo not shown) [Bryostatin 1, bryostatin-1]
[1]
  main adverse reaction: myalgia
[2]; 15 μg/m^2
  target quadrant preference, Bryostatin-1 alone vs. sham-operated: no significant effects
[2]; 15 μg/m^2, 9 days after the last dose
  spatial learning, Bryostatin-1 alone vs. sham-operated: did not affect the learning
[2]; 15 μg/m^2, probe test 24 hours after last trial
  memory retention test after ischemia: effectively restored memory retention after ischemia to the level of the sham-operated rats
[2]; 15 μg/m^2 tail vein, 2 doses/week, 10 doses, from about 24 hours after ischemia, tested 9 days after last dose
  spatial learning impairment, Bryostatin-1+Ischemia vs. Ischemia: restored
[3]; [10]
  water maze spatial learning, compound-only vs. control rats: no differences
[3]; same regimens
  water maze spatial learning, ischemic with treatment vs. control rats: did not differ statistically from the control rats
[3]
  water maze spatial learning, ischemic with treatment vs. ischemic rats: greatly improved the performance

## CCCCCC1CC1CC1CC1CCCCCCCC(=O)O (stereo not shown) [DCP-LA, 2-[(2-pentylcyclopropyl)methyl] cyclopropaneoctanoic acid]
PKCε
  concentration of maximal effect on PKCε activation: 100 nM

## C=C(C)C12C[C@@H](COC(=O)c3ccccc3)[C@@]34OC5(O[C@@H]1[C@@H]3C1O[C@]1(CO)[C@@H](O)[C@@]1(O)[C@H]4[C@@H](C(C)CCCCCC[C@H]5O)C(C)[C@@H]1OC(=O)c1ccccc1)O2 (stereo partly shown) [Gnidimacrin]
[4]
  inhibition of Cdk2: 100%
[5]
  concentrations with potent antitumor activity: 0.1 to 1 nM
PKC [6]
  concentration acting as PKC activator: ≈ 3 nM

## CC1=C[C@]23C(=O)[C@@H](C=C(COC(=O)c4ccccc4)[C@@H](O)[C@]2(O)[C@H]1OC(=O)c1ccccc1)[C@H]1[C@@H](C[C@H]3C)C1(C)C [Ingenol 3,20-dibenzoate]
PKC [7]
  Ki: 240 nM

## C/C=C(/C)C(=O)O[C@H]1C(C)=C[C@]23C(=O)[C@@H](C=C(CO)[C@@H](O)[C@]12O)[C@H]1[C@@H](C[C@H]3C)C1(C)C [Ingenol-3-angelate]
[8]
  antitumor activity: possesses antitumor activity

## CC1=CC[C@H](C)C(C)(C)[C@@H]1/C=C/C(C)=C/CC[C@@]1(CO)[C@H](CCCO)/C(=C(/C)C=O)CC[C@]1(C)O [Iripallidal]
NCI 60 cell line screen
  GI50 (concentration required to inhibit growth by 50%): from micromolar to nanomolar range

## Cc1ccc(OCC(=O)O)c(OCC(=O)O)c1 [MCDA, 4-Methylcatechol-diacetic acid]
[3]; [10]
  target quadrant ratio in probe test, compound-only vs. control rats: no differences
  water maze spatial learning, compound-only vs. control rats: no differences
[3]; same regimens
  target quadrant ratio in probe test, ischemic with treatment vs. control rats: no differences
  target quadrant ratio in probe test, ischemic with treatment vs. ischemic rats: group differences
  water maze spatial learning, ischemic with treatment vs. control rats: remained significant
[3]
  water maze spatial learning, ischemic with treatment vs. ischemic rats: improved the learning of the ischemic rats

## CCCCCCCCc1ccc2c3c(c[nH]c13)C[C@@H](CO)NC(=O)[C@H](C(C)C)N2C [Octylindolactam V]
Protein kinase C
  EC50: 29 nM

## CCCCCCCC(=O)OC1C(=CC(=O)OC)CC2CC(CO)OC(=O)CC(O)CCOC(C(C)(C)C)CC3CCOC(C=CC(C)(C)C1(O)O2)O3 (stereo not shown) [bryolog 3]
PKC [9]
  Ki: 6.5 nM

## CCCCCCCC(=O)OC1C(=CC(=O)OC)CC2CC(CO)OC(=O)CC(O)CCOC(c3ccccc3)CC3CCOC(C=CC(C)(C)C1(O)O2)O3 (stereo not shown) [bryolog 4]
PKC [9]
  Ki: 2.3 nM

## CCCCCCCC(=O)OC1C(=CC(=O)OC)CC2CC(CO)OC(=O)CC(O)CCOC(CCCc3ccc(Br)cc3)CC3CCOC(C=CC(C)(C)C1(O)O2)O3 (stereo not shown) [bryolog 5]
PKC [9]
  Ki: 1.9 nM

Reference: US20090036514A1, “Therapeutic effects of Bryostatins, Bryologs, and other related substances on Ischemia/stroke-induced memory impairment and brain injury” (priority 2007, published 2009)
